Like-named read-outs stand apart in the source and are kept apart here.
Tests used:
[1] = for HPLC Conc./: based on free acid
Excerpt: pH-dependent solubility of the HBI- 3808 sodium salt of Pattern 2 was studied.
pH dependent solubility of the HBI- 3808 sodium salt of Pattern 5 was studied.

[2] = Hydration study in methanol/water aw 0.1, 0.5 and 0.9; format: physicochemical
Excerpt: Hydration studies of ethanolamine salt.

[3] = Dynamic vapor sorption (DVS) analysis; format: physicochemical
Protocol: GC analysis indicated residual solvent contents of 2847 ppm methanol; and 27 ppm TBME. […] No residual methanol or TBME was detected due to signal over-lap. […] TG-DSC analysis indicated two weight losses. The first weight loss of 2.3 wt. % was observed between 20-170° C. […] In the DSC thermogram, three endothermic events were observed (FIG. 17I). […] FT-IR (FIG. 17J) and Raman spectra (FIG. 17K) were recorded for reference. […] XRPD pattern of the ethanolamine salt was retained post-DVS (FIG. 17N). […] However, at the end of the experiment the solids on the microscope slide had discolored (FIG. 17O).

[4] = Varying humidity (VH)-XRPD; format: physicochemical
Protocol: During the sorption phase, sodium salt Pattern 2 was observed between 40-60% RH. […] A mixture of sodium salt Pattern 2 and 5 was also observed at 80% RH. […] During the second desorption, from 90% RH to 40% RH, sodium salt Pattern 5 was maintained.
VH-XRPD analysis was carried out between 40-0% RH (FIG. 5L).

[5] = Stability study at 25° C./60% RH, 40° C./75% RH and 60° C. (XRPD, HPLC purity, impurity tracking); settings: for XRPD: number = sodium salt XRPD Pattern; for RRT 0.801 / RRT 0.959 / RRT 1.000 (HBI-3808) / RRT 1.025 (Isomer of HBI-3808) / RRT 1.767 / Total Impurities / RRT 1.932: impurity tracking
Excerpt: Stability of HBI-3808 Sodium Salt Pattern 2 was studied over 13 weeks.
Table 2F presents impurity tracking results from a 13-week stability study of HBI-3808 sodium salt of Pattern 2. […]

[6] = 40° C./75% RH (open vial), 1 Week
[7] = 40° C./75% RH (open vial), 2 Weeks
[8] = 40° C./75% RH (open vial), 4 Weeks

For `CC1CCC2(C(=O)[O-])CCC3(C)C(=CCC4C5(C)CC(O)C(O)C(C)(CO)C5CCC43C)C2C1(C)O.[Na+]` (stereo not shown) [HBI-3808 sodium salt of Pattern 5, sodium salt of 23-hydroxytormentic acid], the “final Measured pH” value ([1]; FaSSGF) was 9.34, the “HPLC Conc./” value ([1]; FaSSGF) was >150.33 mg/mL and the concentration ([1]; pH 1.2) was < 1000 ng/mL. The “HPLC Conc./” value ([1]; target pH 1.2 chloride buffer, start 200 mg/mL (ethanolamine salt 100 mg/mL)) was <0.001 mg/mL, the “HPLC Conc./” value ([1]; target pH 3.0 acetate buffer) was <0.001 mg/mL and the “HPLC Conc./” value ([1]; target pH 4.0 acetate buffer) was <0.001 mg/mL. The “HPLC Conc./” value ([1]; target pH 6.8 phosphate buffer) was 0.25 mg/mL, the “HPLC Conc./” value ([1]; target pH 8.0 phosphate buffer) was 12.84 mg/mL and the “XRPD of solids recovered at the end of the experiment” value [2] was “consistent with sodium salt Pattern 2”. The “XRPD of recovered material post-DVS” value [3] was “consistent with HBI-3808 sodium salt of Pattern 5”, the “reversibility of mass uptake/loss” value ([3]; Pattern 2: second DVS cycle) was “reversible” and the “water (mass) uptake” value ([3]; at 80% RH/25° C. (Pattern 2: second DVS cycle)) was 0.8 wt. %. For the same compound, the “XRPD pattern / form stability over relative humidity” value ([4]; 0-90% RH) was “stable to relative humidity between 90-0% RH”, the “XRPD pattern during desorption” value ([4]; 40-0% RH, 30° C.) was “no change in diffractogram” and the HPLC/ % area ([5]; 25° C./60% RH (open vial), 1 Week) was 96.4 % area. The XRPD ([5]; 25° C./60% RH (open vial), 1 Week, * Traces of sodium salt Pattern 2) was 5, the HPLC/ % area ([5]; 25° C./60% RH (open vial), 2 Weeks) was 96.7 % area and the XRPD ([5]; 25° C./60% RH (open vial), 2 Weeks, * Traces of Pattern 2) was 5. For the same compound, the HPLC/ % area ([5]; 25° C./60% RH (open vial), 4 Weeks) was 96.3 % area, the XRPD ([5]; 25° C./60% RH (open vial), 4 Weeks, * Traces of Pattern 2) was 5 and the HPLC/ % area [5, 6] was 96.7 % area. For the same compound, the XRPD [5, 6] was 5, the HPLC/ % area [5, 7] was 97.5 % area and the XRPD [5, 7] was 5. It also gave an HPLC/ % area [5, 8] of 96.6 % area, an XRPD [5, 8] of 5 and an HPLC/ % area ([5]; 60° C. (closed vial), 1 Week) of 96.1 % area. The XRPD ([5]; 60° C. (closed vial), 1 Week) was 5, the HPLC/ % area ([5]; 60° C. (closed vial), 2 Weeks) was 97.3 % area and the XRPD ([5]; 60° C. (closed vial), 2 Weeks) was 5. For the same compound, the HPLC/ % area ([5]; 60° C. (closed vial), 4 Weeks) was 96.1 % area, the XRPD ([5]; 60° C. (closed vial), 4 Weeks) was 5 and the “change in chemical purity by HPLC over the stability study” value ([5]; all conditions (25° C./60% RH; 40° C./75% RH; 60° C.), 13 weeks (Pattern 5: 4 weeks)) was “no significant decrease in chemical purity”. The “XRPD pattern over the stability study” value ([5]; all conditions, 4 weeks (Pattern 5), 13 weeks (ethanolamine salt)) was “Sodium salt Pattern 5 was retained”, the “RRT 0.801” value ([5]; 25° C./60% RH, 1 week) was 0.37 % area and the “RRT 0.959” value ([5]; 25° C./60% RH, 1 week) was 0.14 % area. The “RRT 1.000 (HBI-3808)” value ([5]; 25° C./60% RH, 1 week) was 96.39 % area, the “RRT 1.025 (Isomer of HBI-3808)” value ([5]; 25° C./60% RH, 1 week) was 2.67 % area and the “RRT 1.767” value ([5]; 25° C./60% RH, 1 week) was 0.43 % area. For the same compound, the “Total Impurities” value ([5]; 25° C./60% RH, 1 week) was 3.61 % area, the “RRT 0.801” value ([5]; 25° C./60% RH, 2 weeks) was 0.30 % area and the “RRT 1.000 (HBI-3808)” value ([5]; 25° C./60% RH, 2 weeks) was 96.96 % area. The “RRT 1.025 (Isomer of HBI-3808)” value ([5]; 25° C./60% RH, 2 weeks) was 2.74 % area, the “Total Impurities” value ([5]; 25° C./60% RH, 2 weeks) was 3.04 % area and the “RRT 0.801” value ([5]; 25° C./60% RH, 4 weeks) was 0.26 % area. The “RRT 0.959” value ([5]; 25° C./60% RH, 4 weeks) was 0.13 % area, the “RRT 1.000 (HBI-3808)” value ([5]; 25° C./60% RH, 4 weeks) was 96.33 % area and the “RRT 1.025 (Isomer of HBI-3808)” value ([5]; 25° C./60% RH, 4 weeks) was 2.76 % area. For the same compound, the “RRT 1.767” value ([5]; 25° C./60% RH, 4 weeks) was 0.30 % area, the “RRT 1.932” value ([5]; 25° C./60% RH, 4 weeks) was 0.21 % area and the “Total Impurities” value ([5]; 25° C./60% RH, 4 weeks) was 3.67 % area. For the same compound, the “RRT 0.801” value ([5]; 40° C./75% RH, 1 week) was 0.34 % area, the “RRT 0.959” value ([5]; 40° C./75% RH, 1 week) was 0.13 % area and the “RRT 1.000 (HBI-3808)” value ([5]; 40° C./75% RH, 1 week) was 96.67 % area. For the same compound, the “RRT 1.025 (Isomer of HBI-3808)” value ([5]; 40° C./75% RH, 1 week) was 2.52 % area, the “RRT 1.767” value ([5]; 40° C./75% RH, 1 week) was 0.34 % area and the “Total Impurities” value ([5]; 40° C./75% RH, 1 week) was 3.33 % area. The “RRT 0.801” value ([5]; 40° C./75% RH, 2 weeks) was 0.37 % area, the “RRT 1.000 (HBI-3808)” value ([5]; 40° C./75% RH, 2 weeks) was 97.47 % area and the “RRT 1.025 (Isomer of HBI-3808)” value ([5]; 40° C./75% RH, 2 weeks) was 2.16 % area. The “Total Impurities” value ([5]; 40° C./75% RH, 2 weeks) was 2.53 % area, the “RRT 0.801” value ([5]; 40° C./75% RH, 4 weeks) was 0.42 % area and the “RRT 0.959” value ([5]; 40° C./75% RH, 4 weeks) was 0.16 % area. The “RRT 1.000 (HBI-3808)” value ([5]; 40° C./75% RH, 4 weeks) was 96.60 % area, the “RRT 1.025 (Isomer of HBI-3808)” value ([5]; 40° C./75% RH, 4 weeks) was 2.34 % area and the “RRT 1.767” value ([5]; 40° C./75% RH, 4 weeks) was 0.25 % area. The “RRT 1.932” value ([5]; 40° C./75% RH, 4 weeks) was 0.22 % area, the “Total Impurities” value ([5]; 40° C./75% RH, 4 weeks) was 3.40 % area and the “RRT 0.801” value ([5]; 60° C., 1 week) was 0.28 % area. The “RRT 0.959” value ([5]; 60° C., 1 week) was 0.15 % area, the “RRT 1.000 (HBI-3808)” value ([5]; 60° C., 1 week) was 96.23 % area and the “RRT 1.025 (Isomer of HBI-3808)” value ([5]; 60° C., 1 week) was 2.94 % area. The “RRT 1.767” value ([5]; 60° C., 1 week) was 0.40 % area, the “Total Impurities” value ([5]; 60° C., 1 week) was 3.77 % area and the “RRT 0.801” value ([5]; 60° C., 2 weeks) was 0.38 % area. For the same compound, the “RRT 1.000 (HBI-3808)” value ([5]; 60° C., 2 weeks) was 97.33 % area, the “RRT 1.025 (Isomer of HBI-3808)” value ([5]; 60° C., 2 weeks) was 2.29 % area and the “Total Impurities” value ([5]; 60° C., 2 weeks) was 2.67 % area. For the same compound, the “RRT 0.801” value ([5]; 60° C., 4 weeks) was 0.37 % area, the “RRT 0.959” value ([5]; 60° C., 4 weeks) was 0.19 % area and the “RRT 1.000 (HBI-3808)” value ([5]; 60° C., 4 weeks) was 96.13 % area. The “RRT 1.025 (Isomer of HBI-3808)” value ([5]; 60° C., 4 weeks) was 2.71 % area, the “RRT 1.767” value ([5]; 60° C., 4 weeks) was 0.36 % area and the “RRT 1.932” value ([5]; 60° C., 4 weeks) was 0.23 % area. The “Total Impurities” value ([5]; 60° C., 4 weeks) was 3.87 % area, the “RRT 0.801” value ([5]; T = 0) was 0.35 % area and the “RRT 1.000 (HBI-3808)” value ([5]; T = 0) was 96.83 % area. For the same compound, the “RRT 1.025 (Isomer of HBI-3808)” value ([5]; T = 0) was 2.66 % area, the “RRT 1.767” value ([5]; T = 0) was 0.17 % area and the “Total Impurities” value ([5]; T = 0) was 3.17 % area. The “input purity by HPLC” value ([5]; input material of the stability study (baseline)) was 96.8 % area.

Reference: patent US20250326785A1, “SODIUM SALT AND ETHANOLAMINE SALT OF 23-HYDROXYTORMENTIC ACID” (HUYABIO International, LLC, priority 2024, published 2025)
